Read-outs that look alike come from different tables or passages of the source.
Columns and labels:
[1] = Water solubility of cloquintocet salts at 20° C.
[2] = system: wild oats (Avena fatua L., AVEFA); experiment: Greenhouse evaluation, control of wild oats; type: in vivo; conditions: pyroxsulam:cloquintocet (AE) 1:2.1, postemergence spray
Text: A peat based potting soil, Metro-mix 360, (produced by Sun Gro Horticulture Canada CM Ltd) was used as the soil media for this test. Metro-mix 360 is a growing medium consisting of Canadian sphagnum peat moss, coarse perlite, bark ash, starter nutrient charge (with gypsum) and slow release nitrogen and dolomitic limestone. Several seeds of each crop or weed species were planted in 10 cm square pots and top watered twice daily. Plant material was propagated in greenhouse zone E2 at temperatures ranging from 18 to 20° C. and 50 to 60% relative humidity. Natural light was supplemented with 1000-watt metal halide overhead lamps with an average illumination of 500 microeinsteins per square meter per second (μE m^−2 s^−1) photosynthetic active radiation (PAR). Day length was 16 hours. Plant material was top-watered prior to treatment and sub-irrigated after treatment.
Herbicides were applied with a track sprayer manufactured by Allen Machine Works and located in building 306, room E1-483, at the Dow AgroSciences Indianapolis, Ind. Global Headquarters site (9330 Zionsville Road, Indianapolis, Ind., USA). The track sprayer was calibrated to deliver 50 L/ha at 40 psi (262 kPa) pressure utilizing an 8001E even flat fan nozzle tip with a speed of 1.6 mph (2.6 km/h). The nozzle height was 46 cm above the plant canopy. Appropriate amounts of formulated product were added to vials as calculated by the software package ARM8 (Gylling Data Management Inc.). The vials contained a pH 7 phosphate buffer (Fischer Scientific) and the herbicide aliquots were diluted to a total volume of 60 ml. The growth stage of the crop and weed species at application was 2 to 4 leaf (Table 11). The application rates were 0, 17.8 and 37.6 g ai/ha of pyroxsulam for crop tolerance comparisons and 0, 2.35 and 4.7 g ai/ha of pyroxsulam for weed control comparisons. Cloquintocet was applied at a 1:2.1 ratio of pyroxsulam (g ai):cloquintocet (g ae) in all treatments containing the safener. Treatments were replicated 4 times. Plants were returned to the greenhouse after treatment and sub-watered throughout the duration of the experiment. Plant material was fertilized twice weekly with Hoagland's fertilizer solution that is readily available in the greenhouses. Percent visual injury assessments were made on a scale of 0 to 100% as compared to the untreated control plants (where 0 is equal to no injury and 100 is equal to complete death of the plant.
Visual determination of the control of wild oats (Avena fatua L., AVEFA) treated with pyroxsulam alone and with several forms of cloquintocet was conducted. All forms of cloquintocet were applied at a 1:2.1 weight ratio of pyroxsulam:cloquintocet (AE).

[3] = system: cell membranes
[4] = system: durum wheat (Triticum durum L. TRZDU); conditions: pyroxsulam:cloquintocet (AE) 1:2.1, postemergence spray
[5] = system: spring wheat (Triticum aestivum L., TRZAS); conditions: pyroxsulam:cloquintocet (AE) 1:2.1, postemergence spray
[6] = system: cell membranes; remark: listed apart in the source
[7] = system: cell membranes; experiment: Neutral Red Release (NRR) assay, eye irritation potential of aqueous CQC salt solutions; conditions: for NRR50, mg ae/mL: aqueous solution of the CQC salt diluted in PBS, NRR50 corrected to CQC acid equivalent concentration
[8] = solubility solution, water, 20° C.

## CN(C)CCO [N,N-dimethylethanolamine]
[1]; [8]
  Neat pH: 5.7

## CC(O)CN (centres unmarked) [Isopropanolamine]
[2]; pyroxsulam 2.35 g ai/ha
  AVEFA Control 21 DAA (% Control): 80 % Control
[2]; pyroxsulam 4.7 g ai/ha
  AVEFA Control 21 DAA (% Control): 90 % Control
[3]
  NRR50 (% v/v): 29 % v/v
  NRR50, mg ae/mL: 56 mg ae/mL
[4]; pyroxsulam 18.8 g ai/ha
  TRZDU Injury 22 DAA (% Injury): 9 % Injury
[4]; pyroxsulam 37.6 g ai/ha
  TRZDU Injury 22 DAA (% Injury): 12 % Injury
[5]; pyroxsulam 18.8 g ai/ha
  TRZAS Injury 22 DAA (% Injury): 2 % Injury
[5]; pyroxsulam 37.6 g ai/ha
  TRZAS Injury 22 DAA (% Injury): 20 % Injury
[1]
  Density: 1.1 g/mL
[1]; [8]
  Neat pH: 7.4

## CC(C)N [Isopropylamine]
[2]; pyroxsulam 2.35 g ai/ha
  AVEFA Control 21 DAA (% Control): 90 % Control
[2]; pyroxsulam 4.7 g ai/ha
  AVEFA Control 21 DAA (% Control): 99 % Control
[1]
  Density: 1.1 g/mL
  Neat pH: 5.7

## COc1cc(OC)n2nc(NS(=O)(=O)c3c(C(F)(F)F)ccnc3OC)nc2n1 [Pyroxsulam, N-(5,7-dimethoxy [1,2,4]triazolo [1,5-a]pyrimidin-2-yl)-2-methoxy-4-(trifluoromethyl)pyridine-3-sulfonamide]
[2]; pyroxsulam 2.35 g ai/ha
  AVEFA Control 21 DAA (% Control): 86 % Control
[2]; pyroxsulam 4.7 g ai/ha
  AVEFA Control 21 DAA (% Control): 98 % Control

## CCCCCC(C)OC(=O)COc1ccc(Cl)c2cccnc12 (centres unmarked) [mexyl, cloquintocet-mexyl, reference compound]
[2]; pyroxsulam 2.35 g ai/ha
  AVEFA Control 21 DAA (% Control): 71 % Control
[2]; pyroxsulam 4.7 g ai/ha
  AVEFA Control 21 DAA (% Control): 84 % Control

## O=C(O)COc1ccc(Cl)c2cccnc12 [Acid, Cloquintocet]
[2]; pyroxsulam 2.35 g ai/ha
  AVEFA Control 21 DAA (% Control): 96 % Control
[2]; pyroxsulam 4.7 g ai/ha
  AVEFA Control 21 DAA (% Control): 99 % Control
[6]
  NRR50, mg ae/mL: 9 mg ae/mL
[1]; pH 7 buffer solution, 20° C.
  Calculated water solubility wt % ai: 1.4 wt % ai
  Density: 1.0 g/mL
  Neat pH: 5.6
  Water Solubility wt % ae: 1.4 wt % ae
[1]; pH 7 buffer solution, 20° C., listed as CQC acid
  Water Solubility wt % ae: about 1.4 wt % ae

## OCCNCCO [Diethanolamine]
[2]; pyroxsulam 2.35 g ai/ha
  AVEFA Control 21 DAA (% Control): 88 % Control
[2]; pyroxsulam 4.7 g ai/ha
  AVEFA Control 21 DAA (% Control): 94 % Control

## CCCCCCCCCCCCOS(=O)(=O)[O-].[Na+] [SDS, Sodium dodecyl sulfate]
[7]; 5 mg/ml, two independent assay replicates
  NRR assay result of positive control: positive

## CCNCC [Diethylamine]
[2]; pyroxsulam 2.35 g ai/ha
  AVEFA Control 21 DAA (% Control): 88 % Control
[2]; pyroxsulam 4.7 g ai/ha
  AVEFA Control 21 DAA (% Control): 99 % Control
[4]; pyroxsulam 18.8 g ai/ha
  TRZDU Injury 22 DAA (% Injury): 12 % Injury
[4]; pyroxsulam 37.6 g ai/ha
  TRZDU Injury 22 DAA (% Injury): 18 % Injury
[5]; pyroxsulam 18.8 g ai/ha
  TRZAS Injury 22 DAA (% Injury): 5 % Injury
[5]; pyroxsulam 37.6 g ai/ha
  TRZAS Injury 22 DAA (% Injury): 15 % Injury

## Ammonium [reference compound]
[7]
  NRR50, mg ae/mL: 3 mg ae/mL
[1]; [8]
  Density: 1.0 g/mL
  Neat pH: 5.7

## CC(C)NC(C)C [Diisopropylamine]
[1]
  Density: 1.1 g/mL
  Neat pH: 5.9

## CC(O)CNCC(C)O (centres unmarked) [Diisopropanolamine]
[1]; [8]
  Density: 1.1 g/mL
  Neat pH: 6.4

## CNC [Dimethylamine]
[2]; pyroxsulam 2.35 g ai/ha
  AVEFA Control 21 DAA (% Control): 88 % Control
[2]; pyroxsulam 4.7 g ai/ha
  AVEFA Control 21 DAA (% Control): 90 % Control
[4]; pyroxsulam 18.8 g ai/ha
  TRZDU Injury 22 DAA (% Injury): 9 % Injury
[4]; pyroxsulam 37.6 g ai/ha
  TRZDU Injury 22 DAA (% Injury): 15 % Injury
[5]; pyroxsulam 18.8 g ai/ha
  TRZAS Injury 22 DAA (% Injury): 11 % Injury
[5]; pyroxsulam 37.6 g ai/ha
  TRZAS Injury 22 DAA (% Injury): 11 % Injury
[1]
  Density: 1.2 g/mL
  Neat pH: 6

## NCCO [Monoethanolamine]
[1]; [8]
  Density: 1.1 g/mL
  Neat pH: 6.3

## cloquintocet choline salt
[2]; pyroxsulam 2.35 g ai/ha
  AVEFA Control 21 DAA (% Control): 94 % Control
[2]; pyroxsulam 4.7 g ai/ha
  AVEFA Control 21 DAA (% Control): 99 % Control
[4]; pyroxsulam 18.8 g ai/ha
  TRZDU Injury 22 DAA (% Injury): 9 % Injury
[4]; pyroxsulam 37.6 g ai/ha
  TRZDU Injury 22 DAA (% Injury): 12 % Injury
[5]; pyroxsulam 18.8 g ai/ha
  TRZAS Injury 22 DAA (% Injury): 6 % Injury
[5]; pyroxsulam 37.6 g ai/ha
  TRZAS Injury 22 DAA (% Injury): 21 % Injury
[7]
  NRR50, mg ae/mL: 213 mg ae/mL
[1]
  Density: 1.1 g/mL
  Neat pH: 6.8
